Legend:
Assay type in all cases: in vivo, Sprague-Dawley (SD) rats
[1] = test system: valproic acid-induced autism rat models; assay: Repetitive behavior test (grooming time); conditions: 12.5 mg/kg or more, intraperitoneal once a day; grooming time over 10 minutes; compared to autism-induced solvent control; FIG. 3
Experimental: (§1) In particular, valproic acid was subcutaneously injected into female adult Sprague-Dawley (SD) rats on day 12 of gestation, at a dose of 450 mg/kg and in an administration amount of 10 ml/kg, and then the SD rats gave birth to babies. When the born babies were 21 days old, they were grouped according to body weight and selected as autism rat models. As a group administered a solvent, on day 12 of gestation, female adult SD rats were administered a saline solution instead of valproic acid, at the same dose and in the same administration amount.
The autism rat models prepared according to Example <1-1> were intraperitoneally administered piperazine-1-carboxamidine 24 days after birth once a day at a predetermined time. […]
To confirm an autism therapeutic effect of piperazine-1-carboxamidine in valproic acid-induced autism rat models based on these findings, a grooming level enhancement effect was evaluated in the autism rat models.
In particular, the autism rat models of Example <1-2>, which were administered piperazine-1-carboxamidine and aged between 33 days and 38 days, were placed in a cage (42 cm×29 cm×19 cm) without straw litter and adapted thereto for 10 minutes. Thereafter, the grooming time of the autism rat models was measured for 10 minutes to confirm the degree of repetitive behavior. […]

[2] = test system: valproic acid-induced autism rat models; assay: Electroshock-induced seizure threshold (CC50); conditions: 25 mg/kg, intraperitoneal once a day; Litchfield-Wilcoxon method; versus valproic acid-exposed solvent control; FIG. 5
Experimental: as §1
(§2) The autism rat models prepared according to Example <1-1> were intraperitoneally administered piperazine-1-carboxamidine 24 days after birth once a day at a predetermined time. At this time, piperazine-1-carboxamidine was administered at a dose of […], 12.5 mg/kg, 25 mg/kg, or 50 mg/kg, and in an amount of 10 ml/kg. The administration process was repeated until all the experiments were completed, and was performed 30 minutes before experiments, in the case of behavioral experiments.
To confirm an effect of piperazine-1-carboxamidine on treating autism spectrum disorder in autism rat models, electroshock-induced seizure susceptibility was evaluated in autism rat models (Park, Hyung Geun, et al. European journal of pharmacology 574.2, 2007: 112-119; Browning, R. A., et al. Epilepsy research 6.1, 1990: 1-11). […]

[3] = test system: valproic acid-induced autism rat models; assay: Social interaction test (three-compartment box, stranger vs empty cage); conditions: 6.25 mg/kg or more, intraperitoneal once a day, 10 minutes test, compared to solvent control (VPA), FIG. 2A
Experimental: as §1, §2
To verify an effect of piperazine-1-carboxamidine on treating autism spectrum disorder in valproic acid-induced autism rat models, changes in social interaction according to whether piperazine-1-carboxamidine was administered or not were examined (Crawley, Jacqueline N. Mental retardation and developmental disabilities research reviews 10.4 (2004): 248-258). […]

[4] = test system: valproic acid-induced autism rat models; assay: Open field test (hyperactivity and impulsive behavior); conditions: 25 or 50 mg/kg, intraperitoneal once a day, open field 10 minutes
Experimental: as §1, §2
To confirm an effect of piperazine-1-carboxamidine on treating autism spectrum disorder in autism rat models, general locomotor activity of the autism rat models was evaluated by an open field test for assaying enhancement and deterioration of motor functions, sedation, excitement, anxiety, depression, the degree of avoidance, and toxicity. […]

[5] = test system: valproic acid-induced autism rat models; assay: Social preference test (familiar side vs novel side); conditions: 12.5 mg/kg or 25 mg/kg, intraperitoneal once a day, FIG. 2B
Experimental: as §1, §2
To further verify an effect of piperazine-1-carboxamidine on treating autism spectrum disorder in valproic acid-induced autism rat models, an experiment for confirming social preference was carried out.
In particular, after social interest was confirmed in Example <2-1>, another identical type of rat were placed in the empty cage at one end of the box structure, and a social interaction experiment for the autism rat models as experimental groups was conducted for 10 minutes. The cage in which rat were placed in Example <2-1> was regarded as a familiar side, the cage in which new rat were placed was regarded as a novel side, and the degree of interest expressed by the autism rat models as experimental groups was confirmed using the EthoVision system by measuring residence time for each case. A significance test was performed using two-way ANOVA, followed by a Bonferroni's post hoc test.

[6] = 10 minutes test, versus autism-induced solvent control

N=C(N)N1CCNCC1 [piperazine-1-carboxamidine] was tested, and the “degree of grooming (grooming time, repetitive behavior)” value [1] was “decreased”, the “CC50 (convulsive current 50, electroshock-induced seizure threshold)” value [2] was “significantly increased” and the “degree of interest in new rat (strangers), residence time” value ([3]; 30 minutes before test) was “significantly increased”. For the same molecule, the “degree of interest in the new empty side, residence time” value [3] was “decreased”, the “emotional disturbance-related movement in the central region (ratio of moving distance in central region to total)” value ([4]; FIG. 4B) was “reduced to levels of the normal controls” and the “degree of hyperactivity (total moving distance)” value ([4]; versus autism-induced solvent control, FIG. 4A) was “significantly decreased”. The “level of interest in the familiar side, residence time” value [5, 6] was “decreased”, the “level of interest in the novel side, residence time” value [5, 6] was “increased” and the social preference patterns ([5]; relative to normal controls) was “restored to levels similar to those of the normal controls”.

Source: patent publication US10787426B2, “Method of treating autism spectrum disorders using piperazine-1-carboxamidine or pharmaceutically acceptable salt thereof” (NEUROVENTI, priority 2016, dated 2020)
